# Measurements from the supplement of paper PMC11208160.
# Test: recombinant barcode read abundance after kanamycin selection (control-corrected) (log10(CPM+1)); higher = more efficient recombination; sequences stand for … in AGTGCAGAGAAAATCGGCCAGTTTTCTCTGCCTGCAGTCCGCATGCCGT…AGATTTATGCAGCGGACTGCCTTTCTCCCAAAGTGATAAACCGGACAGTATCATGGACCGGTTTTCCCGGTAATCCGTATTTGCAAGGTTGGTTTCACT; site = the 11-nt target
# Description: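 Pooled E. coli target-specificity screen for the IS621 bridge recombinase. Each library plasmid pairs an 11-nt target (CT core) with a bridge RNA whose target-binding loop (9-nt LTG + 4-nt RTG) is reprogrammed; the rest of the 177-nt WT IS621 bridge RNA scaffold is fixed. The plasmid is co-electroporated with a WT donor plasmid; recombinase is induced with 0.1 mM IPTG and recombinants are selected on kanamycin. Recombinant barcodes are sequenced, converted to CPM, averaged over two biological replicates and corrected by the unselected control CPM. Molecule = full bridge RNA written as DNA: LTG = specificity nt 1-9, RTG = reverse complement of specificity nt 8-11, in the WT scaffold.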
# 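Note: IS621 recombinase and bridge RNA in Escherichia coli cells.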
row,Sequence,recombinant barcode read abundance (log10)
1,AGCCCTCCTTGGGTTCTAACCTGTTGCAG (site AGCCCTCCTCT),1.86
2,AGCCCTCCTTGGGTTCTAACCTGTTGCAG (site GAAATAACTAC),0.114
3,AGCCCTCCTTGGGTTCTAACCTGTTGCAT (site AGCCCTCCTAT),1.41
4,AGCCCTCCTTGGGTTCTAACCTGTTGCAT (site AGCGCTCCTAC),0.0462
5,AGCCCTCCTTGGGTTCTAACCTGTTGCTA (site AGCCCTCCTAA),0.0446
6,AGCCCTCCTTGGGTTCTAACCTGTTGCTA (site AGCCCTCCTCA),0.449
7,AGCCCTCCTTGGGTTCTAACCTGTTGCTA (site AGCCCTCCTGA),0.222
8,AGCCCTCCTTGGGTTCTAACCTGTTGCTA (site AGCCCTCCTTA),1.37
9,AGCCCTCCTTGGGTTCTAACCTGTTGCTG (site AGCCCTCCTAA),0.0691
10,AGCCCTCCTTGGGTTCTAACCTGTTGCTG (site AGCCCTCCTCA),1.49
11,AGCCCTCCTTGGGTTCTAACCTGTTGCTG (site AGCCCTCCTGA),0.109
12,AGCCCTCCTTGGGTTCTAACCTGTTGCTG (site AGCCCTCCTTA),0.0866
13,AGCCGAACTTGGGTTCTAACCTGTTGCCT (site AGCCGAACTAG),0.832
14,AGCCGAACTTGGGTTCTAACCTGTTGCCT (site CGCCGAACTAG),0.11
15,AGCCGAACTTGGGTTCTAACCTGTTGCCT (site GGCCGAACTAG),0.478
16,AGCCGAACTTGGGTTCTAACCTGTTGCCT (site TGCCGAACTAG),0.0692
17,AGCCTATCTTGGGTTCTAACCTGTTGCCA (site AGCCTATCTTG),0.101
18,AGCCTATCTTGGGTTCTAACCTGTTGCCA (site CTAGCCGCTAA),0.109

row,Sequence,recombinant barcode read abundance (log10)
1,AGCCTTACTTGGGTTCTAACCTGTTGCCT (site AACCTTACTAG),0.106
2,AGCCTTACTTGGGTTCTAACCTGTTGCCT (site ACCCTTACTAG),0.275
3,AGCCTTACTTGGGTTCTAACCTGTTGCCT (site AGCCTTACTAG),0.171
4,AGCCTTACTTGGGTTCTAACCTGTTGCCT (site ATCCTTACTAG),0.122
5,AGCCTTGCTTGGGTTCTAACCTGTTGCCT (site AGCATTGCTAG),0.0195
6,AGCCTTGCTTGGGTTCTAACCTGTTGCCT (site AGCCTTGCTAG),0.7
7,AGCCTTGCTTGGGTTCTAACCTGTTGCCT (site AGCGTTGCTAG),0.566
8,AGCCTTGCTTGGGTTCTAACCTGTTGCCT (site AGCTTTGCTAG),0.167
9,AGCGAAGCTTGGGTTCTAACCTGTTGCCT (site AGCGAAGCTAG),0.382
10,AGCGAAGCTTGGGTTCTAACCTGTTGCCT (site AGCGAGGCTAG),0.3
11,AGCGAATCTTGGGTTCTAACCTGTTGCCT (site AGAGAATCTAG),0.0521
12,AGCGAATCTTGGGTTCTAACCTGTTGCCT (site AGCGAATCTAG),0.719
13,AGCGAATCTTGGGTTCTAACCTGTTGCCT (site AGGGAATCTAG),0.323
14,AGCGAATCTTGGGTTCTAACCTGTTGCCT (site AGTGAATCTAG),0.158
15,AGCGACCCTTGGGTTCTAACCTGTTGCGT (site AGCGACCCTAC),3.18
16,AGCGACCCTTGGGTTCTAACCTGTTGCGT (site CGCGATCCTAC),0.16
17,AGCGAGTCTTGGGTTCTAACCTGTTGCCT (site AACGAGTCTAG),0.951
18,AGCGAGTCTTGGGTTCTAACCTGTTGCCT (site ACCGAGTCTAG),0.817
